Measurements: patent publication EP1624029A1, “New Pyridinium imine based dyes and their use in optical layers for optical data recording” (CLARIANT INTERNATIONAL LTD., priority 2004, dated 2006)

Assay: DSC thermal decomposition
Assay type: physicochemical
Details: decomposition temperature by DSC
Source text: The optical and thermal properties of the pyridinium imine based dye compounds were studied. The dyes show high absorption at the desired wavelengths. In addition, the shape of the absorption spectra, that still remains critical to the disc reflectivity and formation of clean mark edges, are composed of one major band, comprised in a range of from 350 to 500 nm, preferably of from 350 to 400 nm. […] Sharp threshold of thermal decomposition within the required temperature range characterizes the new pyridinium imine based dyes which are assumed to be desirable for the application in optical layers for optical data recording. As a conclusion, the pyridinium imine based dye compounds are within the specifications which are primarily required by the industry for the use of dyes in optical data recording, in particular in the next-generation optical data recording media in the blue laser range.

## CC[n+]1ccccc1N=CC1C(=O)NC(=O)NC1=O [Example 1]
  DSC (decomp.): 326 °C
